Source: patent publication US20240246967A1, “AXL COMPOUNDS” (ARCUS BIOSCIENCES, INC., priority 2021, published 2024)

Each compound was assayed against T1, Axl (Homo sapiens, UniProt P30530) (assay: Axl NanoBRET intracellular kinase assay (intracellular binding, Cell Binding)). Conditions: HEK-293 cells transfected with Axl-NanoLuc fusion vector; 0.35 μM K-5 NanoBRET tracer.
T1 sequence (P30530 26-894): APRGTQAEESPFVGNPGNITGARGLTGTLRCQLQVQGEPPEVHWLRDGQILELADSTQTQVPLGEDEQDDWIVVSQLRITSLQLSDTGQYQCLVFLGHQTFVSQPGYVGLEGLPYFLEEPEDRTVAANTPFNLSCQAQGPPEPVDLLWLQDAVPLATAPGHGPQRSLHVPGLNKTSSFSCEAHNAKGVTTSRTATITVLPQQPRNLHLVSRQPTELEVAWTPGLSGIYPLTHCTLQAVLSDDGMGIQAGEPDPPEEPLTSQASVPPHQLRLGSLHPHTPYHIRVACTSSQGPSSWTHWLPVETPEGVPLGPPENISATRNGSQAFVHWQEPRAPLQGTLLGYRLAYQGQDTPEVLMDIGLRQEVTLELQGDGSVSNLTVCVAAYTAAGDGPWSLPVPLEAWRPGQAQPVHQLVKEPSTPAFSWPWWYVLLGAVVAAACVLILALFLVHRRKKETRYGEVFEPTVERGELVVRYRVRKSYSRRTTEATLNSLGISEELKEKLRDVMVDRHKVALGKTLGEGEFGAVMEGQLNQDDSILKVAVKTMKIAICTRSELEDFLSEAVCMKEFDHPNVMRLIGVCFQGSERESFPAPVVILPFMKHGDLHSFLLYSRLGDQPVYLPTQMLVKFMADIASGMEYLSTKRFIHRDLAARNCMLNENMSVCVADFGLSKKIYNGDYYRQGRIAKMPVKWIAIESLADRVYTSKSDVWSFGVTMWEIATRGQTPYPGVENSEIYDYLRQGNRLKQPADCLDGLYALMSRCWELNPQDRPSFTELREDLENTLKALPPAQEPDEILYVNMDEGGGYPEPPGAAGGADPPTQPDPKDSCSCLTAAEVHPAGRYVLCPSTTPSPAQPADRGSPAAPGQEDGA
Design: host or cells: HEK-293
How it was run: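 HEK-293 cells transiently expressing Axl-NanoLuc fusion were pre-incubated with compound for 1 h at 37 °C (0.5% DMSO), then with 0.35 μM K-5 tracer for 2 h. Tracer displacement read as reduced BRET ratio (610/450 nm); IC50 from 4-parameter fit.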

SMILES | IC50 [nM]
C[C@@H]1CCCN1C1(C)CCc2ccc(-c3cnc4[nH]nc(-c5ccc(S(=O)(=O)C6CCCC6)cc5)c4c3)cc2CC1 (stereo partly drawn) [Example 45, 3-(4-(Cyclopentylsulfonyl)phenyl)-5-(7-methyl-7-((R)-2-methylpyrrolidin-1-yl)-6,7,8,9-tetrahydro-5H-benzo[7]annulen-2-yl)-1H-pyrazolo[3,4-b]pyridine] | 100 to 1000
C[C@@H]1CCCN1C1(C)CCc2ccc(-c3cnc4[nH]nc(-c5ccc(S(=O)(=O)C6CCC6)cc5)c4c3)cc2CC1 (stereo partly drawn) [Example 46, 3-(4-(Cyclobutylsulfonyl)phenyl)-5-(7-methyl-7-((R)-2-methylpyrrolidin-1-yl)-6,7,8,9-tetrahydro-5H-benzo[7]annulen-2-yl)-1H-pyrazolo[3,4-b]pyridine] | < 100
Cc1cc(-c2n[nH]c3ncc(-c4ccc5c(c4)CCC(N4CCCC4)CC5)cc23)ccc1C(=O)N1CCNCC1 (centres unmarked) [Example 47, 1-(2-Methyl-4-{5-[7-(pyrrolidin-1-yl)-6,7,8,9-tetrahydro-5H-benzo[7]annulen-2-yl]-1H-pyrazolo[3,4-b]pyridin-3-yl}benzoyl)piperazine] | < 100
Cc1cc(-c2n[nH]c3ncc(-c4ccc5c(c4)CCN(C(=O)C(C)C)CC5)cc23)ccc1C(=O)N1CCNCC1 [Example 48, 2-Methyl-1-(7-{3-[3-methyl-4-(piperazine-1-carbonyl)phenyl]-1H-pyrazolo[3,4-b]pyridin-5-yl}-2,3,4,5-tetrahydro-1H-3-benzazepin-3-yl)propan-1-one] | 100 to 1000
Cc1cc(-c2n[nH]c3ncc(-c4ccc5c(c4)CC[C@@H](N4CCCC4)CC5)cc23)cc(C)c1C(N)=O [Example 49, 2,6-Dimethyl-4-{5-[(7S)-7-(pyrrolidin-1-yl)-6,7,8,9-tetrahydro-5H-benzo[7]annulen-2-yl]-1H-pyrazolo[3,4-b]pyridin-3-yl}benzamide] | < 100
Cc1cc(-c2n[nH]c3ncc(-c4ccc5c(c4)CC[C@@H](N4CCCC4)CC5)cc23)cc(Cl)c1C(N)=O [Example 50, 2-Chloro-6-methyl-4-{5-[(7S)-7-(pyrrolidin-1-yl)-6,7,8,9-tetrahydro-5H-benzo[7]annulen-2-yl]-1H-pyrazolo[3,4-b]pyridin-3-yl}benzamide] | < 100
C[C@@H]1CCCN1C1(C)CCc2ccc(-c3cnc4[nH]nc(-c5ccc(C(N)=O)c(F)c5)c4c3)cc2CC1 (stereo partly drawn) [Example 52, 2-Fluoro-4-(5-(7-methyl-7-((R)-2-methylpyrrolidin-1-yl)-6,7,8,9-tetrahydro-5H-benzo[7]annulen-2-yl)-1H-pyrazolo[3,4-b]pyridin-3-yl)benzamide] | < 100
COc1cc(-c2n[nH]c3ncc(-c4ccc5c(c4)CCC(C)(N4CCC[C@H]4C)CC5)cc23)ccc1C(N)=O (stereo partly drawn) [Example 53, 2-Methoxy-4-(5-(7-methyl-7-((R)-2-methylpyrrolidin-1-yl)-6,7,8,9-tetrahydro-5H-benzo[7]annulen-2-yl)-1H-pyrazolo[3,4-b]pyridin-3-yl)benzamide] | < 100
C[C@@H]1CCCN1C1(C)CCc2ccc(-c3cnc4[nH]nc(-c5ccc(C(N)=O)cc5)c4c3)cc2CC1 (stereo partly drawn) [Example 54, 4-(5-(7-Methyl-7-((R)-2-methylpyrrolidin-1-yl)-6,7,8,9-tetrahydro-5H-benzo[7]annulen-2-yl)-1H-pyrazolo[3,4-b]pyridin-3-yl)benzamide] | < 100
Cc1cc(-c2n[nH]c3ncc(-c4ccc5c(c4)CC[C@@H](N4CCCC4)CC5)cc23)cc(C)c1C(=O)N1CCNCC1 [Example 55, 1-(2,6-Dimethyl-4-{5-[(7S)-7-(pyrrolidin-1-yl)-6,7,8,9-tetrahydro-5H-benzo[7]annulen-2-yl]-1H-pyrazolo[3,4-b]pyridin-3-yl}benzoyl)piperazine] | < 100
Cc1cc(-c2n[nH]c3ncc(-c4ccc5c(c4)CC[C@@H](N4CCCC4)CC5)cc23)cc(Cl)c1C(=O)N1CCNCC1 [Example 56, 1-(2-Chloro-6-methyl-4-{5-[(7S)-7-(pyrrolidin-1-yl)-6,7,8,9-tetrahydro-5H-benzo[7]annulen-2-yl]-1H-pyrazolo[3,4-b]pyridin-3-yl}benzoyl)piperazine] | < 100
C[C@@H]1CCCN1C1(C)CCc2ccc(-c3cnc4[nH]nc(-c5ccc(C(C)(C)O)c(Cl)c5)c4c3)cc2CC1 (stereo partly drawn) [Example 57, 2-[2-Chloro-4-(5-{7-methyl-7-[(2R)-2-methylpyrrolidin-1-yl]-6,7,8,9-tetrahydro-5H-benzo[7]annulen-2-yl}-1H-pyrazolo[3,4-b]pyridin-3-yl)phenyl]propan-2-ol] | < 100
C[C@H]1CCCN1C1(C)CCc2ccc(-c3cnc4[nH]nc(-c5ccc(C(C)(C)O)c(Cl)c5)c4c3)cc2CC1 (stereo partly drawn) [Example 58, 2-[2-Chloro-4-(5-{7-methyl-7-[(2S)-2-methylpyrrolidin-1-yl]-6,7,8,9-tetrahydro-5H-benzo[7]annulen-2-yl}-1H-pyrazolo[3,4-b]pyridin-3-yl)phenyl]propan-2-ol] | 100 to 1000
CC(C)(O)c1ccc(-c2n[nH]c3ncc(-c4cc5c(cn4)CCC(N4CCCC4)CC5)cc23)cc1Cl (centres unmarked) [Example 59, 2-(2-Chloro-4-{5-[7-(pyrrolidin-1-yl)-5H,6H,7H,8H,9H-cyclohepta[c]pyridin-3-yl]-1H-pyrazolo[3,4-b]pyridin-3-yl}phenyl)propan-2-ol] | < 100
CC(C)(O)c1ccc(-c2n[nH]c3ncc(-c4ccc5c(n4)CCC(N4CCCC4)CC5)cc23)cc1Cl (centres unmarked) [Example 60, 2-(2-Chloro-4-{5-[7-(pyrrolidin-1-yl)-5H,6H,7H,8H,9H-cyclohepta[b]pyridin-2-yl]-1H-pyrazolo[3,4-b]pyridin-3-yl}phenyl)propan-2-ol] | > 1000
CC(C)(O)c1ccc(-c2n[nH]c3ncc(-c4ccc5c(c4)CC4CCC(C5)C4N4CCCC4)cc23)cc1Cl (centres unmarked) [Example 61, 2-(2-Chloro-4-{5-[13-(pyrrolidin-1-yl)tricyclo[8.2.1.0^3,8]trideca-3,5,7-trien-5-yl]-1H-pyrazolo[3,4-b]pyridin-3-yl}phenyl)propan-2-ol] | > 1000
C[C@@H]1CCCN1C1CCc2ccc(-c3cnc4[nH]nc(-c5ccc(C6(O)CCC6)c(Cl)c5)c4c3)cc2CC1 (stereo partly drawn) [Example 62, 1-[2-Chloro-4-(5-{7-[(2R)-2-methylpyrrolidin-1-yl]-6,7,8,9-tetrahydro-5H-benzo[7]annulen-2-yl}-1H-pyrazolo[3,4-b]pyridin-3-yl)phenyl]cyclobutan-1-ol] | < 100
C[C@@H]1CCCN1C1CCc2ccc(-c3cnc4[nH]nc(-c5ccc(S(N)(=O)=O)c(Cl)c5)c4c3)cc2CC1 (stereo partly drawn) [Example 94, 2-Chloro-4-(5-(7-((R)-2-methylpyrrolidin-1-yl)-6,7,8,9-tetrahydro-5H-benzo[7]annulen-2-yl)-1H-pyrazolo[3,4-b]pyridin-3-yl)benzenesulfonamide] | < 100
C[C@@H]1CCCN1C1(C)CCc2ccc(-c3cnc4[nH]nc(-c5ccc(S(N)(=O)=O)cc5)c4c3)cc2CC1 (stereo partly drawn) [Example 95, 4-(5-(7-Methyl-7-((R)-2-methylpyrrolidin-1-yl)-6,7,8,9-tetrahydro-5H-benzo[7]annulen-2-yl)-1H-pyrazolo[3,4-b]pyridin-3-yl)benzenesulfonamide] | < 100
CC(C)(O)c1ccc(-c2n[nH]c3ncc(-c4ccc5c(c4)CCC4(CCCN4)CC5)cc23)cc1Cl (centres unmarked) [Example 96, 2-[2-Chloro-4-(5-{5,6,8,9-tetrahydrospiro[benzo[7]annulene-7,2′-pyrrolidin]-3-yl}-1H-pyrazolo[3,4-b]pyridin-3-yl)phenyl]propan-2-ol] | > 1000
